Test results reported in the supplement of paper PMC11061612.

Tests used:
Assay in all cases: Bliss excess, mean over the matrix (fraction); higher = more synergy
[1] = tested on: CHSA8926 (Chondrosarcoma)
Summary of the method: (§1)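 Cell lines in DMEM/F12 or RPMI with 10% FBS were plated in 1536-well plates, held 24 hours at 37°C, 5% CO2, then given two-drug dose matrices for 72 hours (DMSO typically 0.2%). Viability was read by CellTiter-Glo 2.0 luminescence and scaled as inhibition from 0 (vehicle wells) to 1 (blank wells). Combination Emax is the second-highest inhibition in the matrix; Bliss excess is observed combination effect minus expected EA + EB − EA·EB, EA and EB being single-agent effects.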

[2] = tested on: PC-3 (Prostate Carcinoma)
Summary of the method: as §1

[3] = tested on: NCI-H526 (Small Cell Lung Carcinoma)
Summary of the method: as §1

[4] = tested on: SUP-B15 (B-Lymphoblastic Leukemia)
Summary of the method: as §1

[5] = tested on: NCI-H661 (Non-Small Cell Lung Carcinoma)
Summary of the method: as §1

[6] = tested on: HCC1187 (Breast Carcinoma)
Summary of the method: as §1

[7] = tested on: NCI-H520 (Squamous Cell Lung Carcinoma)
Summary of the method: as §1

[8] = tested on: KP-3 (Pancreatic Carcinoma)
Summary of the method: as §1

[9] = tested on: NCI-H929 (Plasma Cell Myeloma)
Summary of the method: as §1

G-361 (Melanoma) = tested on: G-361 (Melanoma)
Summary of the method: as §1

[10] = tested on: ST486 (Burkitt's Lymphoma)
Summary of the method: as §1

[11] = tested on: KMS-12-BM (Plasma Cell Myeloma)
Summary of the method: as §1

[12] = tested on: SNU-398 (Hepatocellular Carcinoma)
Summary of the method: as §1

NCI-H2731 (Mesothelioma) = tested on: NCI-H2731 (Mesothelioma)
Summary of the method: as §1

[13] = tested on: NCI-H3122 (Lung Adenocarcinoma)
Summary of the method: as §1

[14] = tested on: KY821 (Acute Myeloid Leukemia)
Summary of the method: as §1

[15] = tested on: CW-2 (Colorectal Carcinoma)
Summary of the method: as §1

[16] = tested on: ESO51 (Esophageal Adenocarcinoma)
Summary of the method: as §1

[17] = tested on: SK-GT-2 (Gastric Carcinoma)
Summary of the method: as §1

[18] = tested on: 8505C (Thyroid Gland Carcinoma)
Summary of the method: as §1

SMILES	Bliss excess [1]	Bliss excess [2]	Bliss excess [3]	Bliss excess [4]	Bliss excess [5]	Bliss excess [6]	Bliss excess [7]	Bliss excess [8]	Bliss excess [9]	Bliss excess (G-361 (Melanoma))	Bliss excess [10]	Bliss excess [11]	Bliss excess [12]	Bliss excess (NCI-H2731 (Mesothelioma))	Bliss excess [13]	Bliss excess [14]	Bliss excess [15]	Bliss excess [16]	Bliss excess [17]	Bliss excess [18]
COc1cccc(OCCCN)c1-c1cc(Nc2cnc(C#N)cn2)n[nH]1 [Prexasertib] + CCc1c2c(nc3ccc(O)cc13)-c1cc3c(c(=O)n1C2)COC(=O)[C@]3(O)CC [SN-38] (first compound max 1 µM, 7x7, partner max 0.3 µM)	-0.0024	-0.0185	-0.0164	-0.0197	0.0419	0.164	-0.0483	0.0321	-0.0713	-0.0219	0.0412	0.0381	0.0441	0.0108	-0.002	-0.0235	-0.0035	-0.0376	0.034	-0.0559
COc1cccc(OCCCN)c1-c1cc(Nc2cnc(C#N)cn2)n[nH]1 [Prexasertib] + CN(C)CCCOc1ccc(-c2ccc3ncc4c(c3c2)n(C2CCOCC2)c(=O)n4C)cn1 [AZD0156] (first compound max 1 µM, 7x7, partner max 1 µM)	-0.039	-0.0352	-0.0158	-0.0513	-0.0451	-0.0016	-0.0486	0.0021	-0.0523	0.061	-0.0139	0.0343	0.0501	-0.012	0.0204	-0.0228	0.0498	-0.0414	-0.0519	-0.0089
COc1cccc(OCCCN)c1-c1cc(Nc2cnc(C#N)cn2)n[nH]1 [Prexasertib] + C[C@@H]1COCCN1C2=NC(=NC(=C2)C3(CC3)[S@](=N)(=O)C)C4=C5C=CNC5=NC=C4 [AZD6738] (first compound max 1 µM, 7x7, partner max 10 µM)	0.0171	-0.0102	0.0283	-0.0671	-0.0655	0.0754	-0.0481	0.0162	-0.0081	0.045	-0.0336	-0.0071	0.026	-0.0089	0.0704	-0.0129	0.0785	-0.0632	-0.0043	-0.0075
COc1cccc(OCCCN)c1-c1cc(Nc2cnc(C#N)cn2)n[nH]1 [Prexasertib] + Cc1cc2ncnn2cc1Nc1ncc2c(n1)n(C1CCOCC1)c(=O)n2C [AZD7648] (first compound max 1 µM, 7x7, partner max 10 µM)	-0.0143	-0.036	-0.0038	-0.0406	-0.0543	0.0307	0.0278	0.0141	-0.0864	-0.0052	-0.0289	0.0085	0.0353	-0.0001	0.0055	0.0276	0.043	-0.0081	-0.0454	0.0131
COc1cccc(OCCCN)c1-c1cc(Nc2cnc(C#N)cn2)n[nH]1 [Prexasertib] + O=C(c1cc(Cc2n[nH]c(=O)c3ccccc23)ccc1F)N1CCN(C(=O)C2CC2)CC1 [Olaparib] (first compound max 1 µM, 7x7, partner max 10 µM)	-0.0147	-0.0355	-0.0214	-0.0191	-0.0373	-0.0164	-0.0756	-0.0444	-0.0638	-0.0411	-0.0406	-0.0312	-0.0572	-0.0228	0.0161	-0.0266	-0.0281	-0.248	-0.0472	-0.0434
COc1cc2c(cc1OCCCCCOc1cc3c(cc1OC)C(=O)N1C=C(C)C[C@H]1C=N3)N=C[C@@H]1CC(C)=CN1C2=O [SG3199] + O=C(c1cc(Cc2n[nH]c(=O)c3ccccc23)ccc1F)N1CCN(C(=O)C2CC2)CC1 [Olaparib] (first compound max 0.001 µM, 7x7, partner max 10 µM)	-0.0566	-0.0417	-0.0148	-0.0051	-0.0432	-0.006	-0.0503	-0.0424	-0.0333	-0.0294	-0.0258	0.0202	-0.0322	-0.0505	-0.0385	-0.0244	-0.0126	-0.0129	-0.0066	-0.0031
CCc1c2c(nc3ccc(O)cc13)-c1cc3c(c(=O)n1C2)COC(=O)[C@]3(O)CC [SN-38] + CN(C)CCCOc1ccc(-c2ccc3ncc4c(c3c2)n(C2CCOCC2)c(=O)n4C)cn1 [AZD0156] (first compound max 0.3 µM, 7x7, partner max 1 µM)	-0.0646	-0.0306	0.0215	-0.0408	0.0286	-0.0347	0.0044	-0.0372	-0.089	0.0105	0.0498	0.0462	0.0255	-0.0407	0.0427	0.055	-0.0118	-0.031	0.0054	0.014
C[C@@H](c1ccc2nccn2c1)n1nnc2ncc(-c3cnn(C)c3)nc21 [Savolitinib] + CC1(C)CCC(CN2CCN(c3ccc(C(=O)NS(=O)(=O)c4ccc(NCC5CCOCC5)c([N+](=O)[O-])c4)c(Oc4cnc5[nH]ccc5c4)c3)CC2)=C(c2ccc(Cl)cc2)C1 [Venetoclax] (first compound max 1 µM, 7x7, partner max 1 µM)	0.0023	-0.0806	0.0111	-0.0465	-0.0651	-0.0494	-0.0333	-0.0762	0.0439	-0.0764	-0.0481	0.0253	-0.057	-0.0423	-0.0394	-0.0139	-0.0459	-0.0334	-0.0144	-0.0664
C[C@@H](c1ccc2nccn2c1)n1nnc2ncc(-c3cnn(C)c3)nc21 [Savolitinib] + Cc1c2c(nn1C)CSCc1cc(n(C)n1)CSc1cc(c3ccccc3c1)OCCCc1c(C(=O)O)n(C)c3c-2c(Cl)ccc13 [AZD5991] (first compound max 1 µM, 7x7, partner max 1 µM)	0.0233	-0.0402	-0.025	-0.0555	-0.0666	-0.0038	-0.0539	-0.0785	0.0063	-0.0044	-0.0159	-0.0168	-0.0697	-0.0586	-0.0562	-0.0415	-0.0263	-0.0013	-0.0274	-0.0324
Cn1cnc2c(F)c(Nc3ccc(Br)cc3Cl)c(C(=O)NOCCO)cc21 [Selumetinib] + C=CCn1c(=O)c2cnc(Nc3ccc(N4CCN(C)CC4)cc3)nc2n1-c1cccc(C(C)(C)O)n1 [AZD1775] (first compound max 10 µM, partner max 1 µM)	-0.0377	-0.0947	-0.052	0.0934	-0.0891	-0.0201	-0.0795	-0.0312	0.0127	-0.0084	0.0165	-0.0355	0.0182	-0.042	-0.126	-0.115	-0.005	-0.0767	-0.0872	0.0279
Cn1cnc2c(F)c(Nc3ccc(Br)cc3Cl)c(C(=O)NOCCO)cc21 [Selumetinib] + CC(C)n1c(=O)n(C)c2cnc3cc(F)c(-c4ccc(OCCCN5CCCCC5)nc4)cc3c21 [AZD1390] (first compound max 10 µM, 7x7, partner max 0.3 µM)	-0.0477	-0.0688	-0.0186	-0.0281	-0.0559	0.0068	-0.0486	-0.0456	0.0105	-0.0582	-0.0391	0.0032	-0.053	-0.0364	0.0111	0.0169	-0.0383	0.0114	-0.0423	-0.0717
Cn1cnc2c(F)c(Nc3ccc(Br)cc3Cl)c(C(=O)NOCCO)cc21 [Selumetinib] + CCN(CCO)CCCOc1ccc2c(Nc3cc(CC(=O)Nc4cccc(F)c4)[nH]n3)ncnc2c1 [AZD2811] (first compound max 10 µM, 7x7, partner max 1 µM)	-0.0593	-0.057	-0.017	0.0553	-0.0645	-0.0374	-0.0221	-0.0293	0.01	0.0005	0.0872	0.0832	0.0026	-0.0293	0.0093	0.05	-0.0142	0.0567	-0.0443	-0.0546
Cn1cnc2c(F)c(Nc3ccc(Br)cc3Cl)c(C(=O)NOCCO)cc21 [Selumetinib] + C[C@@H]1COCCN1C2=NC(=NC(=C2)C3(CC3)[S@](=N)(=O)C)C4=C5C=CNC5=NC=C4 [AZD6738] (first compound max 10 µM, 7x7, partner max 10 µM)	-0.031	-0.036	-0.0544	0.142	-0.0627	-0.0539	-0.0804	-0.0459	-0.121	-0.0081	-0.0592	0.0112	0.0082	-0.0187	-0.0471	-0.0519	0.009	0.0119	-0.0229	0.111
